Reference: publication PMC13058478 (Frontiers in Pharmacology, 2026)

Experiment: Caco-2 passive permeability A to B
Type: in vitro ADME
Conditions: Caco-2, A to B
Method: The concentration of each compound in the respective samples was determined by LC-MS.

Apparent passive permeability A to B Paap, Min: 18.41 10^-6 cm/s
SMILES: CC(C)NCC(O)COc1cccc2ccccc12 (stereo not shown) [Propranolol]
